Columns and labels:
Heme [1] = experiment: Inhibition of heme crystallization by cell-free heme crystallization screen assay
Heme [2] = experiment: Inhibition of heme crystallization by hemichrome inhibition of beta-hematin assay; format: functional
Plasmodium falciparum = experiment: Antimicrobial activity against Plasmodium falciparum 3D7 by DAPI growth inhibition assay; format: functional, organism-based

Structure (SMILES) | IC50 (Heme [1]) [µM] | IC50 (Heme [2]) [equiv] | IC50 (Plasmodium falciparum) [µM]
CCN(CC)Cc1cc(Nc2ccnc3cc(Cl)ccc23)ccc1O.Cl | 67 | 1.45 | 0.0068
CCN(CC)CCCC(C)Nc1ccnc2cc(Cl)ccc12 (configuration not stated) [CHLOROQUINE] | 374 | 1.91 | –
OC(c1cc(C(F)(F)F)nc2c(C(F)(F)F)cccc12)C1CCCCN1 (configuration not stated) [MEFLOQUINE] | 476 | 2.9 | –

— ChEMBL document CHEMBL1649447, “Colorimetric high-throughput screen for detection of heme crystallization inhibitors” (Antimicrob Agents Chemother, 2009)
